Literature values, collected in US20180289421A1, “SYSTEMS AND METHODS FOR TREATING NAIL FUNGUS” (Terimber Corporation, priority 2017, published 2018).

Key:
[1] = systemic antifungal therapy
[2] = system: onychomycosis; conditions: oral, 12-week course

SMILES	cardiac toxicity [1]	maximal clinical response rate [2]	mycologic cure rate [2]	liver toxicity [1]
CCC(C)n1ncn(-c2ccc(N3CCN(c4ccc(OCC5COC(Cn6cncn6)(c6ccc(Cl)cc6Cl)O5)cc4)CC3)cc2)c1=O (stereo not shown) [Itraconazole]	may induce cardiac toxicity			
CN(C/C=C/C#CC(C)(C)C)Cc1cccc2ccccc12 [terbinafine, [(2E)-6,6-dimethylhept-2-en-4-yn-1-yl](methyl)(naphthalen-1-ylmethyl)amine]		60%-70%	71%-82%	can elevate liver enzymes and has progressed to fulminant liver failure
